Assay results published in patent US20100016225A1, “CONJUGATES COMPRISED OF POLYMER AND HIV gp-41-DERIVED PEPTIDES AND THEIR USE IN THERAPY” (Trimeris, Inc., priority 2002, published 2010).

Tests used:
HIV-1 T20S = type: cell-based; settings: T20-sensitive clinical isolate, Table 2
Source text: (§1) Illustrated in this example is the unexpected result of antiviral potency using the conjugates according to the present invention. […] In determining antiviral activity (e.g., one measure being the ability to inhibit transmission of HIV to a target cell) of the conjugates according to the present invention, used was an in vitro assay which has been shown, by data generated using synthetic peptides derived from either of the HR regions of HIV gp41, to be predictive of antiviral activity observed in vivo.
(§2) The infectivity assays score for reduction of infectious virus titer employing the indicator cell lines MAGI or the CCR5 expressing derivative cMAGI. Both cell lines exploit the ability of HIV-1 that to transactivate the expression of a β-galactosidase reporter gene driven by the HIV-LTR. The β-gal reporter has been modified to localize in the nucleus and can be detected with the X-gal substrate as intense nuclear staining within a few days of infection. The number of stained nuclei can thus be interpreted as equal to the number of infectious virions in the challenge inoculum if there is only one round of infection prior to staining. Infected cells are enumerated using a CCD-imager and both primary and laboratory adapted isolates show a linear relationship between virus input and the number of infected cells visualized by the imager. […] Peptides tested for antiviral activity were diluted into various concentrations, and tested in duplicate or triplicate against an HIV inoculum adjusted to yield approximately 1500-2000 infected cells/well of a 48 well microtiter plate. The peptide (in the respective dilution) was added to the CMAGI or MAGI cells, followed by the virus inocula; and 24 hours later, an inhibitor of infection and cell-cell fusion (e.g., T20) was added to prevent secondary rounds of HIV infection and cell-cell virus spread. The cells were cultured for 2 more days, and then fixed and stained with the X-gal substrate to detect HIV-infected cells. The number of infected cells for each control and peptide dilution was determined with the CCD-imager, and then the IC50 and IC90 were calculated (expressed in μg/ml).
In this first example of antiviral potency, two clinical isolates of HIV were obtained from the same HIV-infected individual. A first isolate, hereby designated “HIV-1 T20S” for ease of description, was sensitive to the antiviral effect of T20 (SEQ ID NO:4) both in vitro and in vivo. […] The results, with the IC50 expressed in ng/ml, are illustrated in Table 2.
Using the methods taught in Example 1 herein, additional conjugates were produced by varying the polymer, the terminus of the synthetic peptide which is operably bound to polymer, and the reactive functionality used for operably binding synthetic peptide to polymer. Two molecules of synthetic peptide (e.g. SEQ ID NO:4) were operably bound to polymer. Such conjugates were then tested for antiviral activity against HIV isolates IIIB, and HIV-1 T20S & HIV-1 T20R (see Table 2 for HIV resistant strains), with the antiviral activity (IC50) expressed in μg/ml. The results for the various conjugates (Table 5, A-Q), terminus of synthetic peptide used for operably binding polymer (Table 5, C-terminus denoted as “C”, N-terminus denoted as “N”) or if an internal lysine was used (Table 5, “Lys 18”, signifying lysine as amino acid residue 18 in the amino acid sequence of the synthetic peptide), antiviral activity (IC50) against HIV-1 strain IIIB (Table 5, “IIIB”), antiviral activity (IC50) against HIV-1 T20S (Table 5, “T20S”) and antiviral activity (IC50) against HIV-1 T20R (Table 5, “T20R”), are illustrated in Table 5.

HIV = settings: typical range in words; cited from earlier work
[1] = Bioavailability (circulating half-life) in cannulated mice, plasma fluorescence HPLC; type: in vivo; settings: mouse, 10 mg/kg
Experimental: It is important to note that standard animal model for determining bioavailability has been correlated with the bioavailability of synthetic peptide in vivo in humans (as described in more detail in U.S. Pat. No. 6,258,782). […] A sample of blood was removed at predetermined time intervals (0, 15, 30 min and 1, 2, 4, 6, and 8 hours) and added to collection tubes containing anticoagulant (EDTA). Plasma was harvested from each of the collection tubes, and then subjected to analysis by fluorescence high pressure liquid chromatography (HPLC). In addition to sample dilutions, serial dilutions of dosing solution were performed in buffer as well as in plasma, and used to generate a standard curve relating peak area to known concentration of peptide. This curve was then used to calculate concentration of peptide in plasma taking into account all dilutions performed and quantity injected onto column.

HIV-1 T20S-C = type: cell-based; settings: virus HIV-1 T20S-C
Source text: as §1, §2
(§3) IC50 and IC90 are expressed in μg/ml.

HIV-1 T20S-B = type: cell-based; settings: virus HIV-1 T20S-B
Source text: as §1, §2, §3

HIV-1 T20S-D = type: cell-based; settings: virus HIV-1 T20S-D
Source text: as §1, §2, §3

HIV-1 T20R-D = type: cell-based; settings: virus HIV-1 T20R-D
Source text: as §1, §2, §3

HIV-1 T20S-A = type: cell-based; settings: virus HIV-1 T20S-A
Source text: as §1, §2, §3

HIV-1 T20R-A = type: cell-based; settings: virus HIV-1 T20R-A
Source text: as §1, §2, §3

HIV-1 T20R-C = type: cell-based; settings: virus HIV-1 T20R-C
Source text: as §1, §2, §3

HIV-1 T20R-B = type: cell-based; settings: virus HIV-1 T20R-B
Source text: (§4) The infectivity assays score for reduction of infectious virus titer employing the indicator cell lines MAGI or the CCR5 expressing derivative cMAGI. Both cell lines exploit the ability of HIV-1 that to transactivate the expression of a β-galactosidase reporter gene driven by the HIV-LTR. The β-gal reporter has been modified to localize in the nucleus and can be detected with the X-gal substrate as intense nuclear staining within a few days of infection. The number of stained nuclei can thus be interpreted as equal to the number of infectious virions in the challenge inoculum if there is only one round of infection prior to staining. […] The peptide (in the respective dilution) was added to the CMAGI or MAGI cells, followed by the virus inocula; and 24 hours later, an inhibitor of infection and cell-cell fusion (e.g., T20) was added to prevent secondary rounds of HIV infection and cell-cell virus spread. The cells were cultured for 2 more days, and then fixed and stained with the X-gal substrate to detect HIV-infected cells. The number of infected cells for each control and peptide dilution was determined with the CCD-imager, and then the IC50 and IC90 were calculated (expressed in μg/ml).

IIIB/CEM4 = type: cell-based, HIV; settings: virus IIIB/CEM4
Source text: as §1, §2
(§5) With reference to Table 4, IC50 and IC90 are expressed in μg/ml.

SIM/CEM4 = type: cell-based, HIV; settings: virus SIM/CEM4
Source text: as §1, §2, §5

3′GIV/CEM4 = type: cell-based, HIV; settings: virus 3′GIV/CEM4
Source text: as §1, §2, §5

HIV-1 T20R = type: cell-based; settings: T20-resistant clinical isolate, Table 2
Source text: as §4
In this first example of antiviral potency, two clinical isolates of HIV were obtained from the same HIV-infected individual.
Using the methods taught in Example 1 herein, additional conjugates were produced by varying the polymer, the terminus of the synthetic peptide which is operably bound to polymer, and the reactive functionality used for operably binding synthetic peptide to polymer. Two molecules of synthetic peptide (e.g. SEQ ID NO:4) were operably bound to polymer.

In the case of enfuvirtide, the “HIV-1 T20S: IC50” value (HIV-1 T20S) is given as 0.01 µg/mL, the “50% effective concentration values (EC50), blocked infection of T cells” value (HIV) is given as “in the ng/ml range” and the half-life ([1]; cannulated mice, intravenous, read-out: t½ (converted)) is given as 1.6 h. For the same substance, the AUC ([1]; iv) was 158 µg·h/mL, the IC50 (HIV-1 T20S-C) was 0.006 µg/mL and the IC90 (HIV-1 T20S-C) was 0.073 µg/mL. It also gave an IC50 (HIV-1 T20S-B) of 0.029 µg/mL, an IC90 (HIV-1 T20S-B) of 0.117 µg/mL and an IC50 (HIV-1 T20S-D) of 0.018 µg/mL. It also gave an IC90 (HIV-1 T20S-D) of 0.208 µg/mL, an IC50 (HIV-1 T20R-D) of 2.039 µg/mL and an IC90 (HIV-1 T20R-D) greater than 5 µg/mL. It also gave an IC50 (HIV-1 T20S-A) of 0.006 µg/mL, an IC90 (HIV-1 T20S-A) of 0.078 µg/mL and an IC50 (HIV-1 T20R-A) greater than 5 µg/mL. The IC90 (HIV-1 T20R-A) was greater than 5 µg/mL, the IC50 (HIV-1 T20R-C) was 1.544 µg/mL and the IC90 (HIV-1 T20R-C) was 6.285 µg/mL. For the same substance, the IC50 (HIV-1 T20R-B) was 1.898 µg/mL, the IC90 (HIV-1 T20R-B) was 7.179 µg/mL and the IC50 (IIIB/CEM4) was 0.007 µg/mL. For the same substance, the IC90 (IIIB/CEM4) was 0.052 µg/mL, the IC50 (SIM/CEM4) was 0.584 µg/mL and the IC90 (SIM/CEM4) was 3.398 µg/mL. The IC50 (3′GIV/CEM4) was 0.008 µg/mL, the IC90 (3′GIV/CEM4) was 0.050 µg/mL and the “HIV-1 T20R: IC50” value (HIV-1 T20R) was 1,211 ng/ml.
